From ChEMBL document CHEMBL1152046, “Pyrrolooctahydroisoquinolines as potent and selective opioid receptor ligands: SAR analysis and docking studies” (Bioorg Med Chem Lett, 1997)

What was measured:
[1] = molecular target: Delta-type opioid receptor (Mus musculus, UniProt P32300); assay: inhibition of [3H]DADLE binding to delta-opioid receptor of mouse brain homogenates
[2] = molecular target: Mu-type opioid receptor (Mus musculus, UniProt P42866); assay: Inhibition of [3H]DAMGO from mouse brain homogenate Mu opioid receptor
[3] = molecular target: Kappa-type opioid receptor (Mus musculus, UniProt P33534); assay: Binding affinity against Kappa opioid receptor using [3H]U-69593 radioligand in mouse brain homogenates; format: tissue-based
Chain of Kappa-type opioid receptor (P33534 whole entry): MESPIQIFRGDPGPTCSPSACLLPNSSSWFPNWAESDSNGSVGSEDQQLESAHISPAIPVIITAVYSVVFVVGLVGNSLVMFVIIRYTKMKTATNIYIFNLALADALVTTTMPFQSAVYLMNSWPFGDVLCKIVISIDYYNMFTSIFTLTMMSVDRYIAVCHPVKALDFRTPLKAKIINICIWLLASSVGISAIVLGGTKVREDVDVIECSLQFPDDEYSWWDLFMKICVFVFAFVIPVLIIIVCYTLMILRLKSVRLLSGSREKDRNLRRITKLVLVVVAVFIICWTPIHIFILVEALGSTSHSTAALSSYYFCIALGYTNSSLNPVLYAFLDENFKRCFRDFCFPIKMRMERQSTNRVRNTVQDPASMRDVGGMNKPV

Chain of Delta-type opioid receptor (P32300 whole entry): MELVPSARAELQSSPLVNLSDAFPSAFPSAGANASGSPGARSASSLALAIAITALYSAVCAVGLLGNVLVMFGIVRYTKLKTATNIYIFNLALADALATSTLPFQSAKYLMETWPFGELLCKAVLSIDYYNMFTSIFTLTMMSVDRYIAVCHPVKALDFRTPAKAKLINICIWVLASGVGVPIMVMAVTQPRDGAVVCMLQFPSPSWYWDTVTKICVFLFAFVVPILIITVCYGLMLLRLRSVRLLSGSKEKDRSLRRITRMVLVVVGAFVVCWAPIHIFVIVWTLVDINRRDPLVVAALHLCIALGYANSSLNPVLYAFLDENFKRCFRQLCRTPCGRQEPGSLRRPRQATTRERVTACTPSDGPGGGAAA
Chain of Mu-type opioid receptor (P42866 whole entry): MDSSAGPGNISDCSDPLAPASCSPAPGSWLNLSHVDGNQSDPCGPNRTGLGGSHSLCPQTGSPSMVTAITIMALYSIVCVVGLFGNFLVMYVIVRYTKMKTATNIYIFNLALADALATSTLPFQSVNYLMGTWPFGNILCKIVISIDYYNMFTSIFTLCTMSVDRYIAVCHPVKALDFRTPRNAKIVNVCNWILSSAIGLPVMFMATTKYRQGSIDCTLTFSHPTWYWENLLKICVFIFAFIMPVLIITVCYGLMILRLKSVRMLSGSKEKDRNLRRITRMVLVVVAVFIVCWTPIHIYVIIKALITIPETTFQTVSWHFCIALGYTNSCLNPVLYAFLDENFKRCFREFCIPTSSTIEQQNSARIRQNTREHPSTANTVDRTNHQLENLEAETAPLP

## CCN1CC[C@]2(c3cccc(O)c3)Cc3c([nH]c(C(=S)N(CC)CC)c3C)C[C@H]2C1
[1]
  Ki: 1.5 nM
[2]
  Ki: 42 nM
[3]
  Ki: 449 nM

## CCN1CC[C@]2(c3cccc(O)c3)Cc3[nH]c(C(=O)N(C(C)C)C(C)C)c(C)c3C[C@H]2C1
[1]
  Ki: 2.6 nM
[2]
  Ki: 57.9 nM
[3]
  Ki: > 1000 nM

## CCN1CC[C@]2(c3cccc(O)c3)Cc3[nH]c(C(=O)N(C)C)c(C)c3C[C@H]2C1
[1]
  Ki: 6.8 nM
[2]
  Ki: 580 nM
[3]
  Ki: > 1000 nM

## CCOC(=O)c1[nH]c2c(c1C)C[C@@]1(c3cccc(O)c3)CCN(CC)C[C@@H]1C2
[1]
  Ki: 2.4 nM
[2]
  Ki: 141 nM
[3]
  Ki: 169 nM

## CCN(CC)C(=O)c1[nH]c2c(c1C)C[C@@]1(c3cccc(O)c3)CCN(C)C[C@@H]1C2
[1]
  Ki: 3 nM
[2]
  Ki: 89.4 nM
[3]
  Ki: > 1000 nM

## CN1CC[C@]2(c3cccc(O)c3)Cc3nc4ccccc4cc3C[C@H]2C1
[1]
  Ki: 0.23 nM
[2]
  Ki: 59.6 nM
[3]
  Ki: 312 nM

## CCN1CC[C@]2(c3cccc(O)c3)Cc3[nH]c(C(N)=O)c(C)c3C[C@H]2C1
[1]
  Ki: 15.1 nM
[2]
  Ki: 139 nM
[3]
  Ki: 70.4 nM

## CCN1CC[C@]2(c3cccc(O)c3)Cc3[nH]c(C(=O)N(CC)CC)c(C)c3C[C@H]2C1
[1]
  Ki: 0.95 nM
